Results on one compound are retold here after article PMC5218480 (PLoS ONE, 2017).

Structures are written as SMILES.

The assay deals with MV-4-11 cells. Briefly: Gene expression microarray analysis (Affymetrix PrimeView) and GSEA. Also noted: RFU PODN (11730768_x_at) / Fold change /veh PODN (11730768_x_at) / RFU LINC00158 (11744669_a_at) / Fold change /veh LINC00158 (11744669_a_at) / RFU DUSP10 (11751237_a_at) / Fold change /veh DUSP10 (11751237_a_at) / RFU ID3 (11757404_x_at) / Fold change /veh ID3 (11757404_x_at) / RFU PLEKHG5 (11737974_s_at) / Fold change /veh PLEKHG5 (11737974_s_at) / RFU LRRC4B (11730491_at) / Fold change /veh LRRC4B (11730491_at) / RFU GIMAP4 (11747438_a_at) / Fold change /veh GIMAP4 (11747438_a_at) / RFU KRT8 (11758183_x_at) / Fold change /veh KRT8 (11758183_x_at) / RFU CNN1 (11734310_a_at) / Fold change /veh CNN1 (11734310_a_at) / RFU VPS37D (11726825_at) / Fold change /veh VPS37D (11726825_at) / RFU C10orf10 (11716522_x_at) / Fold change /veh C10orf10 (11716522_x_at) / RFU KIR2DL2 /// KIR2DL4 /// KIR2DL5A /// KIR2DL5B /// KIR2DS1 /// KIR2DS2 /// KIR2DS3 /// KIR2DS4 /// KIR3DL3 /// KIR3DL3 /// KIR3DS1 (11738374_at) / Fold change /veh KIR2DL2 /// KIR2DL4 /// KIR2DL5A /// KIR2DL5B /// KIR2DS1 /// KIR2DS2 /// KIR2DS3 /// KIR2DS4 /// KIR3DL3 /// KIR3DL3 /// KIR3DS1 (11738374_at) / RFU C1QL1 (11718748_at) / Fold change /veh C1QL1 (11718748_at) / RFU TMPRSS4 (11747572_a_at) / Fold change /veh TMPRSS4 (11747572_a_at) / RFU HAMP (11756126_x_at) / Fold change /veh HAMP (11756126_x_at) / RFU RNFT2 (11725882_a_at) / Fold change /veh RNFT2 (11725882_a_at) / RFU NR4A2 (11747474_a_at) / Fold change /veh NR4A2 (11747474_a_at) / RFU ABCC12 (11746883_a_at) / Fold change /veh ABCC12 (11746883_a_at) / RFU TMEM136 (11760407_x_at) / Fold change /veh TMEM136 (11760407_x_at) / RFU CLDN22 /// WWC2 (11732394_at) / Fold change /veh CLDN22 /// WWC2 (11732394_at) / RFU HLA-DPB1 (11760878_x_at) / Fold change /veh HLA-DPB1 (11760878_x_at) / RFU SPINT1 (11716480_a_at) / Fold change /veh SPINT1 (11716480_a_at) / RFU GAP43 (11754022_s_at) / Fold change /veh GAP43 (11754022_s_at) / RFU A4GNT (11735810_at) / Fold change /veh A4GNT (11735810_at) / RFU PRB3 (11715151_x_at) / Fold change /veh PRB3 (11715151_x_at) / RFU TUBB4B (11761932_at) / Fold change /veh TUBB4B (11761932_at) / RFU CAPN14 (11732068_a_at) / Fold change /veh CAPN14 (11732068_a_at) / RFU TMCC2 (11721928_a_at) / Fold change /veh TMCC2 (11721928_a_at) / RFU IRGQ (11745062_a_at) / Fold change /veh IRGQ (11745062_a_at) / RFU FAM174B (11720279_a_at) / Fold change /veh FAM174B (11720279_a_at) / RFU TMPRSS4 (11748680_a_at) / Fold change /veh TMPRSS4 (11748680_a_at) / RFU FAM212B (11763350_a_at) / Fold change /veh FAM212B (11763350_a_at) / RFU PLEKHG5 (11743358_a_at) / Fold change /veh PLEKHG5 (11743358_a_at) / RFU ZSCAN30 (11745921_a_at) / Fold change /veh ZSCAN30 (11745921_a_at) / RFU CMKLR1 (11741424_a_at) / Fold change /veh CMKLR1 (11741424_a_at) / RFU LOC101060620 /// MAPK8IP1 (11723275_at) / Fold change /veh LOC101060620 /// MAPK8IP1 (11723275_at) / RFU SPTSSB (11747773_x_at) / Fold change /veh SPTSSB (11747773_x_at) / RFU PRSS12 (11739890_at) / Fold change /veh PRSS12 (11739890_at) / RFU BIN1 (11741810_x_at) / Fold change /veh BIN1 (11741810_x_at) / RFU WNT11 (11732464_a_at) / Fold change /veh WNT11 (11732464_a_at) / RFU C10orf10 (11716521_a_at) / Fold change /veh C10orf10 (11716521_a_at) / RFU C5orf56 (11738089_at) / Fold change /veh C5orf56 (11738089_at) / RFU CYB561 (11721691_x_at) / Fold change /veh CYB561 (11721691_x_at) / RFU ANKRD19P (11752326_a_at) / Fold change /veh ANKRD19P (11752326_a_at) / RFU OR2T12 /// OR2T33 /// OR2T8 (11738714_s_at) / Fold change /veh OR2T12 /// OR2T33 /// OR2T8 (11738714_s_at) / RFU VCAN (11748164_a_at) / Fold change /veh VCAN (11748164_a_at) / RFU JSRP1 (11732532_at) / Fold change /veh JSRP1 (11732532_at) / RFU KRTAP10-11 (11738290_x_at) / Fold change /veh KRTAP10-11 (11738290_x_at) / RFU MYO3A (11730013_a_at) / Fold change /veh MYO3A (11730013_a_at) / RFU EBF3 (11725865_a_at) / Fold change /veh EBF3 (11725865_a_at) / RFU CAMK2N1 (11719241_x_at) / Fold change /veh CAMK2N1 (11719241_x_at) / RFU C5orf56 (11738088_a_at) / Fold change /veh C5orf56 (11738088_a_at) / RFU OLFML3 (11715873_a_at) / Fold change /veh OLFML3 (11715873_a_at) / RFU LOC100653217 /// NTM (11731650_a_at) / Fold change /veh LOC100653217 /// NTM (11731650_a_at) / RFU MAPK11 (11762145_a_at) / Fold change /veh MAPK11 (11762145_a_at) / RFU FIZ1 (11724087_x_at) / Fold change /veh FIZ1 (11724087_x_at) / RFU OASL (11726364_x_at) / Fold change /veh OASL (11726364_x_at) / RFU SOX15 (11748057_x_at) / Fold change /veh SOX15 (11748057_x_at) / RFU CD79A (11719716_a_at) / Fold change /veh CD79A (11719716_a_at) / RFU HIST1H1D (11736915_at) / Fold change /veh HIST1H1D (11736915_at) / RFU CASKIN2 (11723855_a_at) / Fold change /veh CASKIN2 (11723855_a_at) / RFU LOC730098 (11760151_x_at) / Fold change /veh LOC730098 (11760151_x_at) / RFU OR4N2 (11742367_at) / Fold change /veh OR4N2 (11742367_at) / RFU PRRT2 (11749266_a_at) / Fold change /veh PRRT2 (11749266_a_at) / RFU SNX32 (11753110_a_at) / Fold change /veh SNX32 (11753110_a_at) / RFU CDHR5 (11726645_a_at) / Fold change /veh CDHR5 (11726645_a_at) / RFU RCAN1 (11760418_a_at) / Fold change /veh RCAN1 (11760418_a_at) / RFU FAM167A (11723789_a_at) / Fold change /veh FAM167A (11723789_a_at) / RFU FAM26E (11764081_at) / Fold change /veh FAM26E (11764081_at) / RFU ISYNA1 (11749810_s_at) / Fold change /veh ISYNA1 (11749810_s_at) / RFU ACY1 (11761880_at) / Fold change /veh ACY1 (11761880_at) / RFU 11764098_at / Fold change /veh 11764098_at / RFU SAMD14 (11745864_x_at) / Fold change /veh SAMD14 (11745864_x_at) / RFU NPB (11741838_a_at) / Fold change /veh NPB (11741838_a_at) / RFU TMPRSS6 (11731388_a_at) / Fold change /veh TMPRSS6 (11731388_a_at) / RFU KRTAP10-2 (11738614_at) / Fold change /veh KRTAP10-2 (11738614_at) / RFU ARHGAP8 /// PRR5-ARHGAP8 (11727945_x_at) / Fold change /veh ARHGAP8 /// PRR5-ARHGAP8 (11727945_x_at) / RFU KRTAP5-7 /// NADSYN1 (11734609_at) / Fold change /veh KRTAP5-7 /// NADSYN1 (11734609_at) / RFU RASL12 (11751679_a_at) / Fold change /veh RASL12 (11751679_a_at) / RFU CDKN2B (11736163_a_at) / Fold change /veh CDKN2B (11736163_a_at) / RFU PRF1 (11729649_at) / Fold change /veh PRF1 (11729649_at) / RFU, ZNF638 /// ZNF638-IT1 / Fold change vs veh, ZNF638 /// ZNF638-IT1 / RFU, PANK3 / Fold change vs veh, PANK3 / RFU, SH3YL1 / Fold change vs veh, SH3YL1 / RFU, ZEB2 / Fold change vs veh, ZEB2 / RFU, NRIP1 / Fold change vs veh, NRIP1 / RFU, PTTG1IP / Fold change vs veh, PTTG1IP / RFU, CAPN2 / Fold change vs veh, CAPN2 / RFU, MED14 / Fold change vs veh, MED14 / RFU, SNORA58 / Fold change vs veh, SNORA58 / RFU, C1orf63 / Fold change vs veh, C1orf63 / RFU, LRRFIP1 / Fold change vs veh, LRRFIP1 / RFU, NDUFAF7 / Fold change vs veh, NDUFAF7 / RFU, SLC12A2 / Fold change vs veh, SLC12A2 / RFU, IBTK / Fold change vs veh, IBTK / RFU, ESF1 / Fold change vs veh, ESF1 / Fold change vs veh, TMEM50B / RFU, TAOK1 / Fold change vs veh, TAOK1 / RFU, ACBD3 / Fold change vs veh, ACBD3 / RFU, TMA16 / Fold change vs veh, TMA16 / RFU, RWDD3 / Fold change vs veh, RWDD3 / RFU, BCAT1 / Fold change vs veh, BCAT1 / RFU, EDEM3 / Fold change vs veh, EDEM3 / RFU, TMEM33 / Fold change vs veh, TMEM33 / RFU, WDR75 / Fold change vs veh, WDR75 / RFU, AHCTF1 / Fold change vs veh, AHCTF1 / RFU, TFRC / Fold change vs veh, TFRC / RFU, ZDHHC17 / Fold change vs veh, ZDHHC17 / RFU, NOM1 / Fold change vs veh, NOM1 / RFU, ARL8B / Fold change vs veh, ARL8B / RFU, ZBTB11 / Fold change vs veh, ZBTB11 / RFU, TAMM41 / Fold change vs veh, TAMM41 / RFU, KIAA1704 /// LOC100996395 / Fold change vs veh, KIAA1704 /// LOC100996395 / RFU, ING1 / Fold change vs veh, ING1 / RFU, TRMT61B / Fold change vs veh, TRMT61B / RFU, FUBP3 / Fold change vs veh, FUBP3 / RFU, TP53 / Fold change vs veh, TP53 / RFU, TNKS2 / Fold change vs veh, TNKS2 / RFU, ZFP14 / Fold change vs veh, ZFP14 / RFU, ACTR2 / Fold change vs veh, ACTR2 / RFU, PPP3R1 / Fold change vs veh, PPP3R1 / RFU, PIK3R1 / Fold change vs veh, PIK3R1 / RFU, HNRNPA1 / Fold change vs veh, HNRNPA1 / RFU, RNF170 / Fold change vs veh, RNF170 / RFU, ZNF28 / Fold change vs veh, ZNF28 / RFU, RNGTT / Fold change vs veh, RNGTT / RFU, OGT / Fold change vs veh, OGT / RFU, BRD1 / Fold change vs veh, BRD1 / RFU, MARS / Fold change vs veh, MARS / RFU, ZNF655 / Fold change vs veh, ZNF655 / RFU, FAHD1 / Fold change vs veh, FAHD1 / RFU, BDP1 / Fold change vs veh, BDP1 / RFU, LRRCC1 / Fold change vs veh, LRRCC1 / RFU, ARID1A / Fold change vs veh, ARID1A / RFU, ZNF146 / Fold change vs veh, ZNF146 / RFU, ZNF330 / Fold change vs veh, ZNF330 / RFU, GPN3 / Fold change vs veh, GPN3 / RFU, C9orf123 / Fold change vs veh, C9orf123 / RFU, N4BP2L2 / Fold change vs veh, N4BP2L2 / RFU, ARFIP1 / Fold change vs veh, ARFIP1 / RFU, FAM179B / Fold change vs veh, FAM179B / RFU, BCL10 / Fold change vs veh, BCL10 / RFU, UHRF1BP1L / Fold change vs veh, UHRF1BP1L / RFU, BET1 / Fold change vs veh, BET1 / RFU, CNOT2 / Fold change vs veh, CNOT2 / RFU, ZNF268 / Fold change vs veh, ZNF268 / Fold change vs veh, ZNF507 / RFU, DGCR2 / Fold change vs veh, DGCR2 / RFU, WDSUB1 / Fold change vs veh, WDSUB1 / Fold change vs veh, HSP90B1 /// MIR3652 / RFU, ADSS / Fold change vs veh, ADSS / RFU, GK / Fold change vs veh, GK / RFU, ZNF148 / Fold change vs veh, ZNF148 / RFU, TAF9 / Fold change vs veh, TAF9 / RFU, SLC1A5 / Fold change vs veh, SLC1A5 / RFU, SLMO2 / Fold change vs veh, SLMO2 / RFU, ABCC4 / Fold change vs veh, ABCC4 / RFU, LOC101060439 /// RAP1B / Fold change vs veh, LOC101060439 /// RAP1B / RFU, RFX7 / Fold change vs veh, RFX7 / RFU, GTPBP10 / Fold change vs veh, GTPBP10 / RFU, CNEP1R1 / Fold change vs veh, CNEP1R1 / RFU, BIVM-ERCC5 /// ERCC5 / Fold change vs veh, BIVM-ERCC5 /// ERCC5 / RFU, ILF3 / Fold change vs veh, ILF3 / RFU 11762660_at / Fold change /veh 11762660_at / RFU VCAN (11757783_s_at) / Fold change /veh VCAN (11757783_s_at) / RFU DDX43 (11728927_at) / Fold change /veh DDX43 (11728927_at) / RFU KRT8 (11758188_x_at) / Fold change /veh KRT8 (11758188_x_at) / RFU NKD1 (11759106_at) / Fold change /veh NKD1 (11759106_at) / RFU SRD5A1 (11742802_a_at) / Fold change /veh SRD5A1 (11742802_a_at) / RFU TPSAB1 /// TPSB2 (11721975_s_at) / Fold change /veh TPSAB1 /// TPSB2 (11721975_s_at) / RFU GSTM3 (11746129_a_at) / Fold change /veh GSTM3 (11746129_a_at) / RFU IL23R (11737362_x_at) / Fold change /veh IL23R (11737362_x_at) / RFU TMEM51 (11727254_a_at) / Fold change /veh TMEM51 (11727254_a_at) / RFU PIWIL2 (11732686_x_at) / Fold change /veh PIWIL2 (11732686_x_at) / RFU ORM1 (11744905_x_at) / Fold change /veh ORM1 (11744905_x_at) / RFU CCDC152 (11743942_at) / Fold change /veh CCDC152 (11743942_at) / RFU ECM1 (11717891_a_at) / Fold change /veh ECM1 (11717891_a_at) / RFU IL23R (11748794_a_at) / Fold change /veh IL23R (11748794_a_at) / RFU TNFAIP8L3 (11732012_x_at) / Fold change /veh TNFAIP8L3 (11732012_x_at) / RFU MBOAT4 (11741988_at) / Fold change /veh MBOAT4 (11741988_at) / RFU 11764193_at / Fold change /veh 11764193_at / RFU TMEM53 (11763286_at) / Fold change /veh TMEM53 (11763286_at) / RFU MAGEB2 (11727129_at) / Fold change /veh MAGEB2 (11727129_at) / RFU TMEM200A (11744735_a_at) / Fold change /veh TMEM200A (11744735_a_at) / RFU CCDC152 (11751479_a_at) / Fold change /veh CCDC152 (11751479_a_at) / RFU FAM211A (11726209_a_at) / Fold change /veh FAM211A (11726209_a_at) / RFU RGS16 (11746705_a_at) / Fold change /veh RGS16 (11746705_a_at) / RFU VCAN (11755009_s_at) / Fold change /veh VCAN (11755009_s_at) / RFU RHOB (11743442_s_at) / Fold change /veh RHOB (11743442_s_at) / RFU RGS16 (11720943_a_at) / Fold change /veh RGS16 (11720943_a_at) / RFU RGS16 (11720944_at) / Fold change /veh RGS16 (11720944_at) / RFU, VPS4B / Fold change vs veh, VPS4B / RFU, CREB1 / Fold change vs veh, CREB1 / RFU, DNAJC13 / Fold change vs veh, DNAJC13 / RFU, GNAQ / Fold change vs veh, GNAQ / RFU, CDK5R1 / Fold change vs veh, CDK5R1 / RFU, ZRANB3 / Fold change vs veh, ZRANB3 / RFU, CUL4A / Fold change vs veh, CUL4A / RFU, CCNY / Fold change vs veh, CCNY / RFU, UFL1 / Fold change vs veh, UFL1 / RFU, COG3 / Fold change vs veh, COG3 / RFU, DIAPH2 / Fold change vs veh, DIAPH2 / RFU, SKA2 / Fold change vs veh, SKA2 / RFU, AFF3 / Fold change vs veh, AFF3 / RFU, LMF1 / Fold change vs veh, LMF1 / RFU, IPO11 / Fold change vs veh, IPO11 / RFU, DFFB / Fold change vs veh, DFFB / RFU, FOXP1 / Fold change vs veh, FOXP1 / RFU, CARD8 / Fold change vs veh, CARD8 / RFU, STRN3 / Fold change vs veh, STRN3 / RFU, ADK / Fold change vs veh, ADK / RFU, RASSF2 / Fold change vs veh, RASSF2 / RFU, WIPF1 / Fold change vs veh, WIPF1 / RFU, LARP1B / Fold change vs veh, LARP1B / RFU, RASA1 / Fold change vs veh, RASA1 / RFU, RB1 / Fold change vs veh, RB1 / RFU, PPFIA1 / Fold change vs veh, PPFIA1 / RFU, MAT2A / Fold change vs veh, MAT2A / RFU, CCT5 / Fold change vs veh, CCT5 / RFU, WDR92 / Fold change vs veh, WDR92 / RFU, CUX1 / Fold change vs veh, CUX1 / RFU, TTC7A / Fold change vs veh, TTC7A / RFU, TMEM135 / Fold change vs veh, TMEM135 / RFU, DEPTOR / Fold change vs veh, DEPTOR / RFU, CPM / Fold change vs veh, CPM / RFU, DNAJB6 / Fold change vs veh, DNAJB6 / RFU, CACNA2D3 / Fold change vs veh, CACNA2D3 / RFU, DTX4 / Fold change vs veh, DTX4 / RFU, TFCP2 / Fold change vs veh, TFCP2 / RFU, GMCL1 /// GMCL1P1 / Fold change vs veh, GMCL1 /// GMCL1P1 / RFU, AEBP2 / Fold change vs veh, AEBP2 / RFU, SNHG1 /// SNORD22 /// SNORD25 /// SNORD26 /// SNORD27 /// SNORD28 /// SNORD29 /// SNORD31 / Fold change vs veh, SNHG1 /// SNORD22 /// SNORD25 /// SNORD26 /// SNORD27 /// SNORD28 /// SNORD29 /// SNORD31 / Fold change (Aza/veh), C12orf56 (ProbeSet 11735607_a_at) / Fold change (ACY-1035/veh), C12orf56 (ProbeSet 11735607_a_at) / Fold change (Aza/veh), FGFR1OP (ProbeSet 11751329_s_at) / Fold change (ACY-1035/veh), FGFR1OP (ProbeSet 11751329_s_at) / Fold change (Aza/veh), VPS36 (ProbeSet 11739960_a_at) / Fold change (ACY-1035/veh), VPS36 (ProbeSet 11739960_a_at) / RFU SYPL1 (11715823_x_at) / Fold change /veh SYPL1 (11715823_x_at) / RFU IGFBP7 (11715501_s_at) / Fold change /veh IGFBP7 (11715501_s_at) / RFU REEP3 (11722064_at) / Fold change /veh REEP3 (11722064_at) / RFU IGLL1 (11728026_x_at) / Fold change /veh IGLL1 (11728026_x_at): dose or concentration left out as unconfirmed. It is filed as cell-based, human. The conditions noted are these: MV-4-11 cells, 48 hours.

In the case of `Nc1ccc(-c2cccs2)cc1NC(=O)c1ccc2c(c1)cc(C1CC1)n2CCN1CCOCC1` [ACY-1035], the “Fold change /veh C1QL1 (11718748_at)” value amounted to 0.88.
